How the values were obtained:
[1] = tested on: organotypic hippocampal slice cultures; assay: Neuroprotection against hypoxia in organotypic hippocampal slice cultures (PI fluorescence in CA1); type: cell-based, Wistar rat; details: vs control (hypoxia only = 100% damage); 180 min hypoxia; compound present 45 min pre-hypoxia, during and 24 h post-hypoxia; PI fluorescence area in CA1
Method: Organotypic hippocampal slice cultures were prepared using the basic method of Pringle et al [Brain Res. 755, 36-46 (1997)] modified as follows:
Wistar rat pups (8-11 days old) were decapitated and the hippocampus rapidly dissected into ice-cold Gey's balanced salt solution supplemented with 4.5 mg/ml glucose. Slices were separated and plated onto Millicell CM culture inserts (4 per well) and maintained at 37° C./5% CO2 for 14 days. Maintenance medium consisted of 25% heat-inactivated horse serum, 25% Hank's balanced salt solution (HBSS) and 50% minimum essential medium with added Earle's salts (MEM) supplemented with 1 mM glutamine and 4.5 mg/ml glucose. Medium was changed every 3-4 days.
Experimental hypoxia was performed as described previously (Pringle et al., Stroke 27, 21-24 (1996)& Brain Res. 755, 36-46 (1997)]. Briefly, cultures were transferred to serum free medium (SFM-75% MEM, 25% HBSS supplemented with 1 mM glutamine and 4.5 mg/ml glucose) containing 5 μg/ml of the fluorescent exclusion dye propidium iodide (PI). Cultures were allowed to equilibrate in SFM for 60 minutes prior to imaging. PI fluorescence was detected using a Leica DMIL inverted microscope fitted with a rhodamine filter set. Any cultures in which PI fluorescence was detected at this stage were excluded from further study. Hypoxia was induced by transferring cultures to SFM (+PI) which had been saturated with 95% N2/5% CO2. Culture plates (without lids) were then sealed into an airtight chamber in which the atmosphere was saturated with 95% N2/5% CO2 by continuously blowing through gas at 10 L/minute for ten minutes before being sealed and placed in the incubator for 170 minutes (total time of hypoxia was therefore 180 minutes). At the end of the hypoxic period cultures were returned to normoxic SFM containing PI and placed back in the incubator for 24 hours.
Neuronal damage was assessed using ImageJ running on a PC. Images were captured using a CCD camera and saved for offline analysis. Light transmission images were captured prior to the addition of drugs, and PI fluorescence images recorded at the end of the 24-hour post-hypoxia recovery period. The area of the CA1 sub-region was determined from the transmission image. The area of PI fluorescence in the CA1 was measured using the threshold function on ImageJ, and neuronal damage expressed as the percentage of the CA1 in which PI fluorescence was detected above background.
Unpaired Student's t-tests were employed to ascertain statistical significance.
A series of compounds were examined for possible neuroprotection against hypoxia in organotypic hippocampal slice cultures. Compounds No. 4, 6, 7, 8, 10, 14, 15, 16, 17, 20, 21, 22 and 23 were dissolved in DMSO to a concentration of 1 mg/ml.
7β-hydroxy-epiandrosterone (7β-OH EPIA), a neuroprotective compound, at 100 nM concentrations, was employed as a positive control. A stock solution of 1 mg/ml was dissolved in ethanol. Final dilutions were made in SFM.
The efficacy of all compounds was assessed using a pre-during and post-hypoxia paradigm—compounds were present in the medium 45 minutes pre-hypoxia, the 3 hours of hypoxia and 24 hours post-hypoxia.

## Cc1ccc(C)c2c3c([nH]c12)CCC(O)C3 (stereo not drawn)
other
  melting point: 158 to 161 °C

## Cc1ccc(C)c2c3c([nH]c12)CC(C(=O)O)CC3 (stereo not drawn)
other
  melting point: 228 to 230 °C

## OC1CCc2[nH]c3ccccc3c2C1 (stereo not drawn) [Compound No. 4, 2,3,4,9-Tetrahydro-1H-carbazol-3-ol]
[1]
  % damage in hypoxia model with compound: 58%

## c1ccc2c3c([nH]c2c1)CCC1(C3)OCCO1 [Compound No. 6, 1,2,4,9-Tetrahydro-spiro[carbazole-3,2′-[1,3-dioxolane]]
[1]
  % damage in hypoxia model with compound: 63%

## O=C1CCc2[nH]c3ccccc3c2C1 [Compound No. 7, 1,2,4,9-Tetrahydro-3H-carbazol-3-one]
[1]
  % damage in hypoxia model with compound: 70%

## O=C1CCc2[nH]c3ccccc3c21 [Compound No. 8, 3,4-dihydrocyclopenta[b]indol-1 (2H)-one]
[1]
  % damage in hypoxia model with compound: 59%

## Cc1ccc2c3c([nH]c2c1C)CCC(O)C3 (stereo not drawn) [Compound No. 10, 7,8-Dimethyl-2,3,4,9-tetrahydro-1H-carbazol-3-ol]
[1]
  % damage in hypoxia model with compound: 76%
other
  melting point: 192 to 195 °C

## COc1ccc2[nH]c3c(c2c1)CS(=O)(=O)CC3 [Compound No. 12, 8-Methoxy-1,3,4,5-tetrahydrothiopyrano[43-b]indole 2,2-dioxide]
other
  melting point: 283 to 286 °C (dec.)

## O=C(O)c1ccc2[nH]c3c(c2c1)CCCC3=O [Compound No. 14, 1-Oxo-2,3,4,9-tetrahydro-1H-carbazole-6-carboxylic acid]
[1]
  % damage in hypoxia model with compound: 53%

## COc1ccc2[nH]c3c(c2c1)CCC(C(=O)O)C3 (stereo not drawn) [Compound No. 15, 6-Methoxy-2,3,4,9-tetrahydro-11H-carbazole-2-carboxylic acid]
[1]
  % damage in hypoxia model with compound: 65%

## COc1ccc2[nH]c3c(c2c1)CCC3 [Compound No. 17, 7-Methoxy-1,2,3,4-tetrahydrocyclopenta[b]indole]
[1]
  % damage in hypoxia model with compound: 35%
other
  melting point: 128 to 130 °C

## O=C(O)c1ccc2[nH]c3c(c2c1)CCC3 [Compound No. 18, 1,2,3,4-Tetrahydrocyclopenta[b]indole-7-carboxylic acid]
other
  melting point: 270 to 274 °C

## O/N=C1\CCCc2[nH]c3ccccc3c21 [Compound No. 20, (4E)-1,2,3,9-Tetrahydro-4H-carbazol-4-one oxime]
[1]
  % damage in hypoxia model with compound: 54%

## O/N=C1\CCc2[nH]c3ccccc3c2C1 [Compound No. 21, (3E)-1,2,4,9-Tetrahydro-3H-carbazol-3-one oxime]
[1]
  % damage in hypoxia model with compound: 40%
other
  melting point: 173 to 175 °C (dec.)

## COc1ccc2[nH]c3c(c2c1)CC1(CC3)OCCO1 [Compound No. 22]
[1]
  % damage in hypoxia model with compound: 75%
other
  melting point: 168 to 169 °C

## COc1ccc2[nH]c3c(c2c1)CCCC3 [compound 16, Methyl 2,3,4,9-tetrahydro-1H-carbazol-6-yl ether]
[1]
  % damage in hypoxia model with compound: 60%

## COc1ccc2[nH]c3c(c2c1)CC(=O)CC3 [compound 23, 6-Methoxy-1,2,4,9-tetrahydro-3H-carbazol-3-one]
[1]
  % damage in hypoxia model with compound: 57%
